Data as given in US20240246937A1 (MERCK SHARP & DOHME LLC, priority 2021, published 2024).

Biological target: recombinant IL4I1 (Homo sapiens (Human), UniProt Q96RQ9)
Assay: IL4I1 Enzymatic Assay (Amplex Red/HRP coupled fluorescence detection of H2O2)
Format: biochemical
Details: 240 min; recombinant IL4I1, four-hour pre-incubation with compound
Method: Interleukin 4 inducible protein 1 (IL4I1) is an L-amino oxidase that catalyzes the oxidation of aromatic residues (Phe, Trp and Tyr): L-amino acid+H2O+O2→2-oxo acid+NH3+H2O2. Equal molar of H2O2 and the corresponding alpha-ketoacid are produced when IL4I1 and substrate are added. In this assay, the hydrogen peroxide generated by IL4I1 is then detected through a coupled reaction with Amplex® Red (10-acetyl-3,7-dihydroxyphenoxazine) and horseradish peroxidase (HRP) to produce resorufin product that could be detected in the form of fluorescence signals. The assessment of the inhibitory effect of small molecules (EC50) on IL4I1 is measured by the effectiveness of the compounds to inhibit the production of H2O2.
Using this assay, the potency (EC50) of each compound was determined from a ten-point (1:3 serial dilution) titration curve using the following outlined procedure. To each well of a black flat-bottom Greiner (Cat #781076) 384 well-plate, 25 nL of compound (0.1% DMSO in final assay volume of 25 μL) was dispensed, followed by the addition of 12.5 μL of 1× assay buffer (50 mM Hepes 7.0 and 0.005% Tween20 (Sigma, Cat #P8341; low peroxide grade)) containing 2 nM of recombinant IL4I1 (R&D Systems, Cat #5684-AO-020). Plates were placed in an ambient temperature humidified chamber for a four-hour pre-incubation with compound. Subsequently, each reaction was initiated by the addition of 12.5 μL 1× assay buffer containing 2 mM of each aromatic amino acids (Phe/Tyr/Trp), 0.1 mM Amplex Red and 2 U/mL of HRP. The final reaction in each well of 25 μL consisted of 1 nM of IL4I1, 1 mM of each residues (Phe, Tyr and Trp), 0.05 mM Amplex Red and 1 U/mL of HRP. It should be noted that the concentrations of Amplex Red and HRP used here were in excess such that the conversion of H2O2 to resorufin product occurred instantaneously and was non-rate limiting. Reactions were allowed to proceed for 120 minutes followed by fluorescence readout on a Spectramax with the following set parameters: 544 nm excitation/590 nm emission, 570 nm cutoff (EnVision is an alternative reader). Dose-response curves were generated by plotting percent effect (% product conversion; Y-axis) vs. Log10 compound concentrations (X-axis). EC50 values were calculated using a non-linear regression, four-parameters sigmoidal dose-response model and are shown in Potency Table 1.

Sequence of recombinant IL4I1 (Q96RQ9 22-567): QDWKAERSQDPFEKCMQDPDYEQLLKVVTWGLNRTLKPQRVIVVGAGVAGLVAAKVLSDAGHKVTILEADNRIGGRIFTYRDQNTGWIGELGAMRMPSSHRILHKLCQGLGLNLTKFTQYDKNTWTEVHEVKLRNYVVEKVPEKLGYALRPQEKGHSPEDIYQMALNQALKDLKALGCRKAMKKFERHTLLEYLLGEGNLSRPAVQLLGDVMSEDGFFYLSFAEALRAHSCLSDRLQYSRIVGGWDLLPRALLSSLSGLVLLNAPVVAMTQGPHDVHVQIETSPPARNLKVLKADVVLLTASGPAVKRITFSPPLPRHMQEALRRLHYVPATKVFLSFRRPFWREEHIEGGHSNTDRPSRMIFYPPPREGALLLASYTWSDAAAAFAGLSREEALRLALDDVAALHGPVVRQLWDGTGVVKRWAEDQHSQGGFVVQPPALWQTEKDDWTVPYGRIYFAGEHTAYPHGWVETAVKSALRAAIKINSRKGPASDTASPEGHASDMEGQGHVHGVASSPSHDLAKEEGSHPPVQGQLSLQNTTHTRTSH

Compound | EC50 [nM]
O=C1C(=O)N(C2CCCC2)CCN1Cc1ccc(-c2ccccc2)nn1 [Example 3, 1-cyclopentyl-4-((6-phenylpyridazin-3-yl)methyl)piperazine-2,3-dione] | 12
O=C1C(=O)N(C2CCCC2)CCN1Cc1ncc(-c2ccccc2)cn1 [Example 4, 1-cyclopentyl-4-((5-phenylpyrimidin-2-yl)methyl)piperazine-2,3-dione] | 19
O=C1C(=O)N(C2CCCC2)CCN1Cc1ncc(-c2cncs2)cn1 [Example 5, 1-cyclopentyl-4-((5-(thiazol-5-yl)pyrimidin-2-yl)methyl)piperazine-2,3-dione] | 50
O=C1C(=O)N(C2CCCC2)CCN1Cc1ccc(-c2cnco2)nn1 [Example 6, 1-cyclopentyl-4-((6-(oxazol-5-yl)pyridazin-3-yl)methyl)piperazine-2,3-dione] | 43
O=C1C(=O)N(C2CC(c3ccccc3)C2)CCN1Cc1ccc(-c2ccccc2)nn1 (stereo not shown) [Example 7, 1-(3-phenylcyclobutyl)-4-((6-phenylpyridazin-3-yl)methyl)piperazine-2,3-dione] | 9
O=C1C(=O)N(C2CCCC2)CCN1Cc1ccc(-c2cncs2)nn1 [Example 11, 1-cyclopentyl-4-((6-(thiazol-5-yl)pyridazin-3-yl)methyl)piperazine-2,3-dione] | 16
O=C1C(=O)N(C2CCCC2)CCN1Cc1ccc(-c2cn[nH]c2)nn1 [Example 15, 1-((6-(1H-pyrazol-4-yl)pyridazin-3-yl)methyl)-4-cyclopentylpiperazine-2,3-dione] | 44
O=C1C(=O)N(C2CCCC2)CCN1Cc1ncc(-c2cn[nH]c2)cc1F [Example 16, 1-cyclopentyl-4-((3-fluoro-5-(1H-pyrazol-4-yl)pyridin-2-yl)methyl)piperazine-2,3-dione] | 16
O=C1C(=O)N(C2CCCC2)CCN1Cc1ccc(-c2cncs2)nc1 [Example 17, 1-cyclopentyl-4-((6-(thiazol-5-yl)pyridin-3-yl)methyl)piperazine-2,3-dione] | 7
O=C1C(=O)N(C2CCCC2)CCN1Cc1ccc(-c2cnco2)nc1 [Example 18, 1-cyclopentyl-4-((6-(oxazol-5-yl)pyridin-3-yl)methyl)piperazine-2,3-dione] | 41
O=C1C(=O)N(C2CCCC2)CCN1Cc1ccc(-c2cn[nH]c2)nc1 [Example 24, 1-((6-(1H-pyrazol-4-yl)pyridin-3-yl)methyl)-4-cyclopentylpiperazine-2,3-dione] | 30
O=C1C(=O)N(C2CCC2)CCN1Cc1ccc(-c2cn[nH]c2)nn1 [Example 25, 1-((6-(1H-pyrazol-4-yl)pyridazin-3-yl)methyl)-4-cyclobutylpiperazine-2,3-dione] | 21
O=C1C(=O)N(C2CCC2)CCN1Cc1ccc(-c2ccccc2)cn1 [Example 26, 1-cyclobutyl-4-((5-phenylpyridin-2-yl)methyl)piperazine-2,3-dione] | 6

Continued, values first:

EC50 [nM] | Compound
10 | O=C1C(=O)N([C@@H]2CC[C@@H](c3ccccc3)C2)CCN1Cc1nnc(-c2ccccc2)s1 (single isomer, unassigned) [Example 440C, (R or S, R or S)-1-((5-phenyl-1,3,4-thiadiazol-2-yl)methyl)-4-(3-phenylcyclopentyl)piperazine-2,3-dione]
8 | O=C1C(=O)N([C@@H]2CC[C@@H](c3ccccc3)C2)CCN1Cc1nnc(-c2ccccc2)s1 (single isomer, unassigned) [Example 440D, (R or S, R or S)-1-((5-phenyl-1,3,4-thiadiazol-2-yl)methyl)-4-(3-phenylcyclopentyl)piperazine-2,3-dione]
10 | O=C1C(=O)N(C2CCC2)CCN1Cc1ccc(-c2ccccc2F)nn1 [Example 1, 1-cyclobutyl-4-((6-(2-fluorophenyl)pyridazin-3-yl)methyl)piperazine-2,3-dione]
9 | O=C1C(=O)N(C23CC(C2)C3)CCN1Cc1nnc(-c2cccc(F)c2)s1 [Example 2, 1-(bicyclo[1.1.1]pentan-1-yl)-4-((5-(3-fluorophenyl)-1,3,4-thiadiazol-2-yl)methyl)piperazine-2,3-dione]
7 | O=C1C(=O)N(C2CCCC2)CCN1Cc1nnc(-c2cccc(F)c2)s1 [Example 8, 1-cyclopentyl-4-((5-(3-fluorophenyl)-1,3,4-thiadiazol-2-yl)methyl)piperazine-2,3-dione]
15 | O=C1C(=O)N(C2CCCC2)CCN1Cc1ccc(-c2ccccc2F)nn1 [Example 9, 1-cyclopentyl-4-((6-(2-fluorophenyl)pyridazin-3-yl)methyl)piperazine-2,3-dione]
21 | O=C1C(=O)N(C2CCCC2)CCN1Cc1ncc(-c2cncs2)cc1F [Example 10, 1-cyclopentyl-4-((3-fluoro-5-(thiazol-5-yl)pyridin-2-yl)methyl)piperazine-2,3-dione]
8 | O=C1C(=O)N(C2CCC2)CCN1Cc1ccc(-c2ccccc2)nn1 [Example 12, 1-cyclobutyl-4-((6-phenylpyridazin-3-yl)methyl)piperazine-2,3-dione]
8 | O=C1C(=O)N(C2CCCC2)CCN1Cc1nnc(-c2ccccc2F)s1 [Example 13, 1-cyclopentyl-4-((5-(2-fluorophenyl)-1,3,4-thiadiazol-2-yl)methyl)piperazine-2,3-dione]
6 | O=C1C(=O)N(C2CCCC2)CCN1Cc1ccc(-c2cccc(F)c2)nn1 [Example 14, 1-cyclopentyl-4-((6-(3-fluorophenyl)pyridazin-3-yl)methyl)piperazine-2,3-dione]
7 | O=C1C(=O)N(C2CCCC2)CCN1Cc1ccc(-c2cncs2)cc1F [Example 19, 1-cyclopentyl-4-(2-fluoro-4-(thiazol-5-yl)benzyl)piperazine-2,3-dione]
5 | O=C1C(=O)N(C2CCC2)CCN1Cc1ccc(-c2cccc(F)c2)nn1 [Example 20, 1-cyclobutyl-4-((6-(3-fluorophenyl)pyridazin-3-yl)methyl)piperazine-2,3-dione]
14 | O=C1C(=O)N(C2CCC2)CCN1Cc1ccc(-c2cccc(F)c2F)nn1 [Example 21, 1-cyclobutyl-4-((6-(2,3-difluorophenyl)pyridazin-3-yl)methyl)piperazine-2,3-dione]
22 | O=C1C(=O)N(C2CCC2)CCN1Cc1ccc(-c2cc(F)cc(F)c2)nn1 [Example 22, 1-cyclobutyl-4-((6-(3,5-difluorophenyl)pyridazin-3-yl)methyl)piperazine-2,3-dione]
21 | O=C1C(=O)N(C2CCCC2)CCN1Cc1ccc(-c2cn[nH]c2)cc1F [Example 23, 1-cyclopentyl-4-(2-fluoro-4-(1H-pyrazol-4-yl)benzyl)piperazine-2,3-dione]
5 | O=C1C(=O)N(C2CCC2)CCN1Cc1nnc(-c2cccc(F)c2)s1 [Example 27, 1-cyclobutyl-4-((5-(3-fluorophenyl)-1,3,4-thiadiazol-2-yl)methyl)piperazine-2,3-dione]
8 | O=c1c(=O)n(C2CCC2)ccn1Cc1nnc(-c2cccc(F)c2)s1 [Example 28, 1-cyclobutyl-4-((5-(3-fluorophenyl)-1,3,4-thiadiazol-2-yl)methyl)-1,4-dihydropyrazine-2,3-dione]
9 | O=C1C(=O)N(C2CCC2)CCN1Cc1nnc(-c2ccc(F)cc2)s1 [Example 29, 1-cyclobutyl-4-((5-(4-fluorophenyl)-1,3,4-thiadiazol-2-yl)methyl)piperazine-2,3-dione]
